From patent publication EP0504290B1, “INHIBITORS OF PNEUMOCYSTIS CARINII DIHYDROFOLATE REDUCTASE” (CHIRON CORPORATION, priority 1989, dated 1991) come the findings set out here.

Read-outs that look alike come from different tables or passages of the source.

The target of test [1] is Pneumocystis carinii DHFR (Pneumocystis carinii, UniProt P16184). Description: biochemical.
For test [2], the target named is T1, recombinant human DHFR (Homo sapiens, UniProt P00374).
T1 sequence (P00374 1-187): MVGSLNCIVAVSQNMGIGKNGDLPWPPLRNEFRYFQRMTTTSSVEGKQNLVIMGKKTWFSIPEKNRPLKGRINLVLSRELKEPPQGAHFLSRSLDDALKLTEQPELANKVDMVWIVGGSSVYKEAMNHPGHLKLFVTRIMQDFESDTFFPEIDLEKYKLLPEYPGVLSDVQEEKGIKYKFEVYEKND
Description: Inhibition of recombinant human DHFR activity by substituted phenyl triazines at 25 µM DHF. The format is biochemical.

Test [3] deals with P. carinii DHFR (Pneumocystis carinii, UniProt P16184). Description: biochemical.
Chain of P. carinii DHFR (P16184 whole entry): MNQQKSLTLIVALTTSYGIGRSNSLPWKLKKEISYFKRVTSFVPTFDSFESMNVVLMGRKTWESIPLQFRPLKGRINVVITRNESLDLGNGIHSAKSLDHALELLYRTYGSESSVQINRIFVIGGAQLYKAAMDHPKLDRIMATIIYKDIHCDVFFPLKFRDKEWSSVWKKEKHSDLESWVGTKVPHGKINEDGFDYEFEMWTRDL
Where [4] appears, read: ratio of human DHFR Ki to P. carinii DHFR Ki.

Chain of Pneumocystis carinii DHFR (P16184 whole entry): as above

With `CCCCCCCCCCCOc1cccc(N2C(N)=NC(N)=NC2(C)C)c1` [3-O(CH2)10CH3], the results for the IC50 in test [1] and in test [2] were 1.33 µM and 8.8 µM, respectively. In addition, the “Selectivity, Ki (human)/Ki(Pc)” value in test [1] (setting [4]) stood at 11.3.

As a reminder, the Ki is the equilibrium dissociation constant of an inhibitor or competing ligand from its target. `CC1(C)N=C(N)N=C(N)N1c1ccc(O)cc1` [-OH]: in test [3], the IC50 was found to be 250 µM and affinity was put at a Ki of 0.875 µM.

For `COc1ccc(N2C(N)=NC(N)=NC2(C)C)cc1` [-OCH3], in test [3], the IC50 was 90 µM and affinity was put at a Ki of 0.315 µM.

As to `CC1(C)N=C(N)N=C(N)N1c1cccc(CNc2cc(C(N)=O)cc(C(N)=O)c2)c1` [3-CH2NHϕ, 3',5'(CONH2)2], in test [1], the IC50 amounted to 1.07 µM and the “Selectivity, Ki (human)/Ki(Pc)” value was 4.5. Also, the IC50 in test [2] is 2.8 µM.

Regarding `CC1(C)N=C(N)N=C(N)N1c1cccc(CNc2ccc(C#N)cc2)c1` [3-CH2NHϕ, 4'CN], the IC50 was found to be 0.6 µM in test [1] and 0.52 µM in test [2]. In addition, in test [1] (setting [4]), the “Selectivity, Ki (human)/Ki(Pc)” value was 1.5.

Regarding `Cc1cccc(OCc2cccc(N3C(N)=NC(N)=NC3(C)C)c2)c1` [3-CH20ϕ, 3'CH3], the IC50 amounted to 1.4 µM in test [1] and 0.65 µM in test [2]. For the same compound, in test [1] (setting [4]), the “Selectivity, Ki (human)/Ki(Pc)” value amounted to 0.8.

For the compound `COc1cccc(OCc2cccc(N3C(N)=NC(N)=NC3(C)C)c2)c1` [3-CH2Oϕ, 3'OCH3], the IC50 in test [1] was determined as 0.55 µM; in test [2] it was 0.36 µM. Besides, in test [1] (setting [4]), the “Selectivity, Ki (human)/Ki(Pc)” value stood at 1.1.

Regarding `CC1(C)N=C(N)N=C(N)N1c1ccc([N+](=O)[O-])cc1` [-NO2], in test [3], the IC50 was above 8330 µM and the Ki is above 2.9 µM.

Regarding `CCOC(=O)c1cccc(N2C(N)=NC(N)=NC2(C)C)c1` [Substituent 3-CO2Et], the IC50 in test [1] was 166 µM; in test [2] it was 114 µM. Also, the “Selectivity, Ki (human)/Ki(Pc)” value in test [1] (setting [4]) is listed as 1.2.

Regarding `CC1(C)N=C(N)N=C(N)N1c1cccc([N+](=O)[O-])c1` [Substituent 3-NO2], the IC50 was 9.5 µM in test [1] and 2.76 µM in test [2]. The “Selectivity, Ki (human)/Ki(Pc)” value in test [1] (setting [4]) is 0.7.

On to `CC1(C)N=C(N)N=C(N)N1c1cccc(COc2cccc(Cl)c2)c1` [3-CH20ϕ, 3'Cl], for which the results for the IC50 in test [1] and in test [2] were 0.85 µM and 0.47 µM, respectively. In test [1] (setting [4]), the “Selectivity, Ki (human)/Ki(Pc)” value is on record as 0.9.

For `CC1(C)N=C(N)N=C(N)N1c1cccc(COc2ccc(Cl)c(Cl)c2Cl)c1` [3-CH2Oϕ, 2',3',4'Cl3], the IC50 in test [1] amounted to 0.56 µM; in test [2], 0.81 µM. The “Selectivity, Ki (human)/Ki(Pc)” value in test [1] (setting [4]) came out at 2.5.

As to `CCCCCCCCCCCCCCOc1cccc(N2C(N)=NC(N)=NC2(C)C)c1` [3-O(CH2)13CH3], the IC50 in test [1] turned out to be 23.6 µM; in test [2] it was 31.6 µM. In test [1] (setting [4]), the “Selectivity, Ki (human)/Ki(Pc)” value is listed as 2.3.

Regarding `CC(=O)c1cccc(N2C(N)=NC(N)=NC2(C)C)c1` [Substituent 3-COCH3], the IC50 in test [2] turned out to be 21 µM.

Regarding `CC1(C)N=C(N)N=C(N)N1c1cccc(OCCOc2cccc(C(F)(F)F)c2)c1` [3-O(CH2)20ϕ, 3'CF3], in test [1], the IC50 was found to be 1.6 µM.

As to `CCCCCCOc1cccc(N2C(N)=NC(N)=NC2(C)C)c1` [3-O(CH2)5CH3], the figures for the IC50 in test [1] and in test [2] were 1.52 µM and 6.4 µM, respectively. In test [1] (setting [4]), the “Selectivity, Ki (human)/Ki(Pc)” value was found to be 7.2.

In test [3], `CC1(C)N=C(N)N=C(N)N1c1ccc(Cl)cc1` [Substituent 4-Cl, 4,6-diamino-1-(p-chlorophenyl)1,2-dihydro-2,2-dimethyl-s-triazine, reference compound] gave an IC50 of 20 µM and a Ki of 0.07 µM. In test [1], this compound gave an IC50 of 7.5 µM and an inhibition constant (Ki) of 0.109 µM. Besides, the “times more tightly bound to human DHFR than to P. carinii DHFR” value in test [2] (human DHFR versus P. carinii DHFR) is given as around 2.5 times.

In test [3], `Cc1ccc(N2C(N)=NC(N)=NC2(C)C)cc1` [-CH3] yielded an IC50 of 30 µM and a Ki of 0.105 µM.

Regarding `CC1(C)N=C(N)N=C(N)N1c1cccc(COc2cccc(CO)c2)c1` [3-CH2Oϕ, 3'CH2OH], the figures for the IC50 in test [1] and in test [2] were 1.8 µM and 0.97 µM, respectively. Besides, the “Selectivity, Ki (human)/Ki(Pc)” value in test [1] (setting [4]) stood at 0.9.

Regarding `CC1(C)N=C(N)N=C(N)N1c1cccc(COc2cccc3ccccc23)c1` [3-CH20(a)Naphthyl], in test [1], the IC50 came to 0.36 µM and the “Selectivity, Ki (human)/Ki(Pc)” value is recorded as 2.6. Besides, the IC50 in test [2] was 0.56 µM.

In test [1], `CC1(C)N=C(N)N=C(N)N1c1cccc(OCc2ccccc2)c1` [Substituent 3-OCH2ϕ] displayed an IC50 of 4.6 µM.

As to `CC(=O)Nc1cccc(OCc2cccc(N3C(N)=NC(N)=NC3(C)C)c2)c1` [3-CH2Oϕ, 3'NHAc], the IC50 in test [1] is 0.23 µM.

On to `CCOc1cccc(N2C(N)=NC(N)=NC2(C)C)c1` [Substituent 3-OEt], for which the IC50 in test [2] stood at 13.8 µM.

On to `CC1(C)N=C(N)N=C(N)N1c1ccc(C(F)(F)F)cc1` [-CF3], for which, in test [3] (100 µM NADPH, 100 µM DHF, 1 nM P. carinii DHFR, 25 C, read-out: IC5O (100 µM DHF)), the IC50 came out at 25 µM. The Ki in test [3] (read-out: Ki) came out at 0.0875 µM.
